# Reference: patent US20220387358A1, “CERAMIDE ANALOG SACLAC MODULATES SPHINGOLIPID LEVELS AND MCL-1 SPLICING TO INDUCE APOPTOSIS IN ACUTE MYELOID LEUKEMIA” (University of Virginia Patent Foundation, priority 2019, published 2022)
# Where two headings read alike, the source gives them in different places.
# Experiments:
# [1] = system: 30 human AML cell lines; test: Cell viability MTS assay, panel of cell lines; type: cell-based; settings: 24 and 48-hour time points
# Description: (§1) For cell viability, cell lines were plated at 2.5×10^4 cells per well in a 96-well plate and treated with […] or DMSO vehicle (0.4% of total volume) for the indicated time points and doses. At the experiment end point, 3-(4,5-Dimethylthiazol-2-yl)-5-(3-carboxymethoxyphenyl)-2-(4-sulfophenyl)-2H-tetrazolium (MTS) Cell Proliferation Colorimetric Assay Kit (# K300-5000, BioVision, Inc., Milpitas, Calif., United States of America) reagent was added and incubated for 2 hours. Conversion of MTS to formazan product was measured by absorbance at 490 nm using a BioTek Cytation 3 plate reader (BioTeck, Winooski, Vt., United States of America). Absorbance was normalized to DMSO control, which was defined as 100% viability. Due to limited cell numbers, patient samples and normal samples were plated at 5×10^3 cells per well in a 384-well plate with […] or DMSO control for the indicated time points and doses. At the experiment end point, a luminescent reagent sold under the tradename [sequence]-GLOTM (#G7572, Promega Corporation, Madison, Wis., United States of America) was added. After 15 minutes, luminescence was read on a BioTek Cytation 3 plate reader (BioTek, Winooski, Vt., United States of America). Absorbance was normalized to DMSO control, which was defined as 100% viability.
# [2] = system: two human AML xenograft mouse models; test: Leukemic burden across two human AML xenograft mouse models; type: in vivo
# Excerpt: To assess the efficacy of SACLAC in a transplantable human AML model, two cell line models were used. For the MV4-11 model, 2.5×10^6 luciferase and yellow fluorescent protein (YFP)-expressing MV4-11 cells in HBSS were introduced into 6- to 8-week-old female NSG mice via tail-vein injections. After 10-12 days, engraftment was confirmed using bioluminescence imaging with the IVIS Lumina LT Series III imaging system (PerkinElmer Inc., Waltham, Mass., United States of America). Mice were equally randomized into two groups of three mice and treated with vehicle or SACLAC at 5 mg/kg/day five times per week for 18 total injections. At the end of the treatment, animals were euthanized and peripheral blood was collected for flow cytometry analysis.
# For the U937 model, 1×10^4 luciferase and tdTomato-expressing U937 cells in […] were introduced into 6- to 8-week-old female NSG mice via tail-vein injections. After six days, engraftment was confirmed as stated above. Mice were equally randomized into two groups of five mice and treated with vehicle or SACLAC at 5 mg/kg/day five times per week for 15 total injections. Animals were euthanized and bone marrow was collected for flow cytometry analysis.
# [3] = system: KG1a cells; test: Rescue from SACLAC-induced apoptosis by Mcl-1S knockdown; type: cell-based, human; settings: 10 μM SACLAC 48 hours; siRNA (100 nM) targeting MCL-1S vs scrambled
# Description: Apoptosis in cell lines was assessed after treating 2.5×10^5 cells per ml with drug or vehicle in a 48-well plate for the indicated time points and doses. Primary human AML cells were pre-incubated with SFEM for 48 hours before plating 2×10^5 cells in 24-well plates for the indicated times point and doses. Samples were stained using the Muse Annexin V & Dead Cell Kit (Millipore #MCH100105). Change in mitochondrial membrane potential in cell lines was measured with the Muse® MitoPotential Kit (#MCH100110, MilliporeSigma, Burlington, Mass., United States of America). Caspase activation was measured using the Muse® Caspase 3/7 Assay Kit (#MCH100108, MilliporeSigma, Burlington, Mass., United States of America). For rescue experiments, cells were plated at 2.5×10^4 well in a 96-well plate 24 hours after electroporation. Cells were treated with DMSO or SACLAC for 48 hours and apoptosis was detected as stated above. All kits were used according to manufacturer's protocol. Cells were then analyzed using the Muse® Cell Analyzer (MilliporeSigma, Burlington, Massachusetts, United States of America) (35,36). Experiments included positive and negative controls for proper analysis. […]
# [4] = system: primary AML patient samples; test: Apoptosis by flow cytometry (Annexin V); type: cell-based, human; settings: seven patient samples; 48-hour treatment
# Description: Apoptosis in cell lines was assessed after treating 2.5×10^5 cells per ml with drug or vehicle in a 48-well plate for the indicated time points and doses. Primary human AML cells were pre-incubated with SFEM for 48 hours before plating 2×10^5 cells in 24-well plates for the indicated times point and doses. Samples were stained using the Muse Annexin V & Dead Cell Kit (Millipore #MCH100105). Change in mitochondrial membrane potential in cell lines was measured with the Muse® MitoPotential Kit (#MCH100110, MilliporeSigma, Burlington, Mass., United States of America). Caspase activation was measured using the Muse® Caspase 3/7 Assay Kit (#MCH100108, MilliporeSigma, Burlington, Mass., United States of America). For rescue experiments, cells were plated at 2.5×10^4 well in a 96-well plate 24 hours after electroporation. Cells were treated with DMSO or […] for 48 hours and apoptosis was detected as stated above. All kits were used according to manufacturer's protocol. Cells were then analyzed using the Muse® Cell Analyzer (MilliporeSigma, Burlington, Massachusetts, United States of America) (35,36). Experiments included positive and negative controls for proper analysis.
# [5] = system: HL-60/VCR; test: Cell viability MTS assay; type: cell-based; settings: Homo sapiens, HL60/VCR; 24-hour treatment
# Description: as §1
# [6] = system: OCI-AML2; test: Cell viability MTS assay; type: cell-based; settings: Homo sapiens, 24-hour treatment
# Description: as §1
# [7] = system: THP-1; test: Cell viability MTS assay; type: cell-based; settings: Homo sapiens, 24-hour treatment
# Description: as §1
smiles,measurement,setting,value
"CCCCCCCCCCCCCCC[C@@H](O)[C@H](CO)NC(=O)CCl [SACLAC, N-[(2S,3R)-1,3-dihydroxyoctadecan-2-yl]2-chloroacetamide]",EC50,[1]; read-out: average EC50 across 30 human AML cell lines,3200 nM
same,EC50,"[1]; Homo sapiens, 48 h, read-out: average EC50 across 30 human AML cell lines",~3000 nM
same,EC50,"[1]; Homo sapiens, 48 h, read-out: EC50 of 25 of 30 cell lines, 25 of 30 cell lines",< 5000 nM
same,reduction in leukemic burden,[2],37 to 75%
same,"apoptosis induction reduced by, in Mcl-1S knockdown cells",[3],36%
same,apoptosis reached by more than half the samples,[4],≥ 80%
same,EC50,[5],3300 nM
same,EC50,[6],1800 nM
same,EC50,[7],2600 nM
